molecular target: T1, Human NPY Y1 receptors (Homo sapiens, UniProt P25929); experiment: NPY Receptor Binding Assay; details: not given
T1 construct: expressed in transfected cells; host or cells: CHO cells (membrane protein)
T1 sequence (P25929 1-384): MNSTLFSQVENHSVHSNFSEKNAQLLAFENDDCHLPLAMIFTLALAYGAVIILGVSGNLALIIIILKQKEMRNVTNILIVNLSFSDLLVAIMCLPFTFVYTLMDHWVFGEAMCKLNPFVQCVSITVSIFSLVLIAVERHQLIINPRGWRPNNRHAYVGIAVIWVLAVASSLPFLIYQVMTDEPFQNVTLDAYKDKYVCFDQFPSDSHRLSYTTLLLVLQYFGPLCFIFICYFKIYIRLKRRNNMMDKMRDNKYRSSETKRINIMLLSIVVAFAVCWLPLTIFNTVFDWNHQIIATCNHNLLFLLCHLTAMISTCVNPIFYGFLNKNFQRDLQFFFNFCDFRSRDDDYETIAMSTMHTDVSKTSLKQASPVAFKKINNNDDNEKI
Procedure: NPY Receptor Binding Assay
Human NPY Y1 receptors were expressed in CHO cells. Binding assays were performed in 50 mM HEPES, pH 7.2, 2.5 mM CaCl2, 1 mM MgCl2 and 0.1% BSA containing 5-10 μg of membrane protein and 0.1 nM […] in a total volume of 200 μl. Non-specific binding was determined in the presence of 1 μM NPY. The reaction mixtures were incubated for 90 minutes at room temperature then filtered through Millipore MAFC glass fiber filter plates which had been pre-soaked in 0.5% polyethleneimine. The filters were washed with phosphate-buffered saline, and radioactivity was measured in a Packard TopCount scintillation counter.

SMILES	Ki [µM]
Cc1ccc2nc(NCCc3ccc(/N=C4/N[C@@H](CC(C)C)C(=O)S4)cc3)sc2c1 [Example 351]	> 10
COc1ccc2nc(NCCc3ccc(/N=C4/N[C@@H](CC(=O)O)C(=O)S4)cc3)sc2c1 [Example 348]	> 10
CC(C)[C@@H]1N/C(=N/c2ccc(CCNc3nc4ccccc4s3)cc2)SC1=O [Example 397]	> 10
C[C@@H]1N/C(=N/c2ccc(CCNc3nc4cc(Cl)c(Cl)cc4s3)cc2)SC1=O [Example 393]	> 10
CC(C)C[C@@H]1N/C(=N/c2ccc(CCNc3nc4ccccc4s3)cc2)SC1=O [Example 396]	> 10
COc1ccc2nc(NCCc3ccc(/N=C4/N[C@@H](Cc5ccccc5)C(=O)S4)cc3)sc2c1 [Example 344]	> 10
O=C1S/C(=N\c2ccc(CCNc3nc4ccc(Cl)cc4s3)cc2)N[C@H]1Cc1ccccc1 [Example 382]	> 10
CS(=O)(=O)c1ccc2nc(NCCc3ccc(/N=C4/N[C@@H](Cc5ccccc5)C(=O)S4)cc3)sc2c1 [Example 387]	> 10

Second part, the compound after the results:

Ki [µM]	SMILES
> 10	Cc1ccc2nc(NCCc3ccc(/N=C4/N[C@@H](Cc5ccccc5)C(=O)S4)cc3)sc2c1 [Example 350]
> 10	O=C1S/C(=N/c2ccccc2CCNc2nc3ccccc3s2)N2CCC[C@@H]12 [Example 405]
> 10	O=C1CN/C(=N/c2ccc(CCNc3nc4cc(Cl)c(Cl)cc4s3)cc2)S1 [Example 391]
> 10	Cc1cccc2sc(NCCc3ccc(/N=C4/N[C@@H](CC(=O)O)C(=O)S4)cc3)nc12 [Example 372]
> 10	CC(C)C[C@@H]1N/C(=N/c2ccc(CCNc3nc4cc(Cl)c(Cl)cc4s3)cc2)SC1=O [Example 362]
> 10	COc1cccc2sc(NCCc3ccc(/N=C4\SC(=O)[C@@H]5CCCN45)cc3)nc12 [Example 366]
> 10	O=C1S/C(=N\c2ccc(CCNc3nc4ccc(F)cc4s3)cc2)N2CCC[C@@H]12 [Example 375]
> 10	O=C1S/C(=N\c2ccc(CCNc3nc4ccc(F)cc4s3)cc2)N[C@H]1Cc1ccccc1 [Example 373]
> 10	CSCC[C@@H]1N/C(=N/c2ccc(CCNc3nc4ccc([N+](=O)[O-])cc4s3)cc2)SC1=O [Example 414]
> 10	O=C(O)C[C@@H]1N/C(=N\c2ccccc2CCNc2nc3ccccc3s2)SC1=O [Example 413]
> 10	Cc1cccc2sc(NCCc3ccc(/N=C4/N[C@@H](C(C)C)C(=O)S4)cc3)nc12 [Example 371]

same assay, conditions: Procedure A compounds, rated A/B/C

Ki [µM]	SMILES
> 10	c1cc(CCNc2nc3ccccc3s2)cc(NC2=NCCS2)c1 [Example 25]
1 to 10	Cc1cccc2sc(NCCc3ccc(NC4=NCCS4)cc3)nc12 [Example 23]
1 to 10	Clc1cc2nc(NCCc3ccc(NC4=NCCS4)cc3)sc2cc1Cl [Example 20]

same assay, conditions: Procedure B compounds, rated A/B/C

SMILES	Ki [µM]
CCOC(=O)N1CC(c2ccccc2)N=C1Nc1ccc(CCNc2nc3ccccc3s2)cc1 (stereo not drawn) [Example 27]	> 10
CC1N=C(Nc2ccc(CCNc3nc4ccccc4s3)cc2)N(C(=O)c2ccccc2)C1c1ccccc1 (stereo not drawn) [Example 31]	> 10

The remaining lines, values ahead:

Ki [µM]	SMILES
> 10	CCOC(=O)N1CC2CCCN2/C1=N\c1ccc(CCNc2nc3ccccc3s2)cc1 (stereo not drawn) [Example 34]
> 10	O=C(c1ccccc1)N1CC2(CCCC2)N=C1Nc1ccc(CCNc2nc3ccccc3s2)cc1 [Example 32]

same assay, conditions: Procedure C compounds, rated A/B/C

Ki [µM]	SMILES
> 10	CCOC(=O)N1C(=O)[C@H](CC2CCCCC2)N=C1Nc1ccc(CCNc2nc3ccccc3s2)cc1 [Example 39]

same assay, conditions: Procedure E compounds, rated A/B/C

SMILES	Ki [µM]
Clc1cccc(C2CCSC(Nc3ccc(CCNc4nc5ccccc5s4)cc3)=N2)c1 (stereo not drawn) [Example 198]	< 1
CC1CCSC(Nc2ccc(CCNc3nc4ccccc4s3)cc2)=N1 (stereo not drawn) [Example 200]	< 1
Cc1ccc2nc(NCCc3ccc(/N=C4\SC[C@@H]5CCCN45)cc3)sc2c1 [Example 89]	> 10
CC(C)C[C@@H]1CS/C(=N\c2ccc(CCNc3nc4ccc(Cl)cc4s3)cc2)N1 [Example 100]	1 to 10
CCCC1CS/C(=N\c2ccc(CCNc3nc4ccc(OC)cc4s3)cc2)N1 (stereo not drawn) [Example 214]	< 1
C[C@@H]1CS/C(=N\c2ccc(CCNc3nc4ccc(Cl)cc4s3)cc2)N1 [Example 109]	1 to 10
Cc1ccc2nc(NCCc3ccc(/N=C4\SC5CCC[C@H]5N4C)cc3)sc2c1 (stereo partly drawn) [Example 223]	> 10
Cc1ccc2nc(NCCc3ccc(/N=C4\SCCN4C)cc3)sc2c1 [Example 86]	> 10
c1cc(CCNc2nc3ccccc3s2)cc(/N=C2\NCCCS2)c1 [Example 69]	> 10
COc1cccc2sc(NCCc3ccc(/N=C4/NC(c5ccccc5)CCS4)cc3)nc12 (stereo not drawn) [Example 206]	> 10
CC[C@@H]1CS/C(=N\c2ccc(CCNc3nc4ccc(S(C)(=O)=O)cc4s3)cc2)N1 [Example 115]	1 to 10
COc1ccc2nc(NCCc3ccc(/N=C4\SC5Cc6ccccc6[C@@H]5N4C4CC4)cc3)sc2c1 (stereo partly drawn) [Example 79]	> 10
COc1cccc2sc(NCCc3ccc(/N=C4/N[C@H]5c6ccccc6CC5S4)cc3)nc12 (stereo partly drawn) [Example 325]	> 10
Fc1ccc2nc(NCCc3ccc(/N=C4/NCCCS4)cc3)sc2c1 [Example 211]	< 1
COc1ccc2nc(NCCc3ccc(/N=C4/N[C@@H](C(C)C)CS4)cc3)sc2c1 [Example 216]	1 to 10
COc1cccc2sc(NCCc3ccc(/N=C4/NCC(C)S4)cc3)nc12 (stereo not drawn) [Example 326]	> 10

Results, then the compound that gave them:

Ki [µM]	SMILES
1 to 10	CCC1CS/C(=N\c2ccc(CCNc3nc4ccc(Cl)cc4s3)cc2)N1 (stereo not drawn) [Example 103]
< 1	Fc1ccc2nc(NCCc3ccc(/N=C4/N[C@H]5c6ccccc6CC5S4)cc3)sc2c1 (stereo partly drawn) [Example 328]
> 10	Cc1ccc2nc(NCCc3ccc(/N=C4/NCC(C)S4)cc3)sc2c1 (stereo not drawn) [Example 324]
> 10	Cc1cccc2sc(NCCc3ccc(/N=C4/NCC(c5ccccc5)S4)cc3)nc12 (stereo not drawn) [Example 188]
< 1	COc1ccc(C2CCSC(Nc3ccc(CCNc4nc5ccccc5s4)cc3)=N2)cc1 (stereo not drawn) [Example 333]
< 1	COc1ccc2nc(NCCc3ccc(/N=C4/N[C@H](CC(C)C)CS4)cc3)sc2c1 [Example 82]
> 10	c1ccc(CN2CCS/C2=N\c2ccc(CCNc3nc4ccccc4s3)cc2)cc1 [Example 74]
< 1	Clc1ccc(C2CCSC(Nc3ccc(CCNc4nc5ccccc5s4)cc3)=N2)cc1 (stereo not drawn) [Example 337]
> 10	COc1cccc2sc(NCCc3ccc(/N=C4\SC5Cc6ccccc6[C@@H]5N4C)cc3)nc12 (stereo partly drawn) [Example 228]
> 10	C=C(C)CN1/C(=N/c2ccc(CCNc3nc4ccc(C)cc4s3)cc2)SC2Cc3ccccc3[C@@H]21 (stereo partly drawn) [Example 225]
< 1	Cc1ccc2nc(NCCc3ccc(/N=C4/N[C@H](C)CS4)cc3)sc2c1 [Example 95]
< 1	CC(C)CC1CCSC(Nc2ccc(CCNc3nc4ccccc4s3)cc2)=N1 (stereo not drawn) [Example 338]
> 10	COc1cccc2sc(NCCc3ccc(/N=C4\SCCN4C)cc3)nc12 [Example 230]
< 1	Clc1ccc2nc(NCCc3ccc(NC4=NCCCS4)cc3)sc2c1 [Example 213]
> 10	O=[N+]([O-])c1ccc2nc(NCCc3ccc(N=C4NCCCS4)cc3)sc2c1 [Example 62]
< 1	CCC1CS/C(=N\c2ccc(CCNc3nc4ccc(OC)cc4s3)cc2)N1 (stereo not drawn) [Example 84]
> 10	CC1CN/C(=N/c2ccc(CCNc3nc4ccc(Cl)cc4s3)cc2)S1 (stereo not drawn) [Example 331]
< 1	Fc1ccc2nc(NCCc3ccc(/N=C4/NC5(CCCC5)CS4)cc3)sc2c1 [Example 169]

same assay, conditions: Procedure G compounds, rated A/B/C

SMILES	Ki [µM]
CCOC(=O)c1sc(Nc2ccc(CCNc3nc4ccccc4s3)cc2)nc1C(F)(F)F [Example 432]	> 10
CCOC(=O)CC(C)(C)c1csc(Nc2ccc(CCNc3nc4ccccc4s3)cc2)n1 [Example 434]	> 10

Now from value to compound:

Ki [µM]	SMILES
> 10	CNC(=O)c1sc(Nc2ccc(CCNc3nc4ccccc4s3)cc2)nc1C [Example 418]
> 10	c1ccc2cc(-c3csc(Nc4ccc(CCNc5nc6ccccc6s5)cc4)n3)ccc2c1 [Example 422]
> 10	Fc1ccc(-c2csc(Nc3ccc(CCNc4nc5ccccc5s4)cc3)n2)cc1 [Example 420]
> 10	c1ccc(-c2csc(Nc3ccc(CCNc4nc5ccccc5s4)cc3)n2)cc1 [Example 423]
> 10	c1ccc(-c2ccc(-c3csc(Nc4ccc(CCNc5nc6ccccc6s5)cc4)n3)cc2)cc1 [Example 419]
> 10	Cc1nc(Nc2ccc(CCNc3nc4ccccc4s3)cc2)sc1C [Example 428]
> 10	O=C(O)c1csc(Nc2ccc(CCNc3nc4ccccc4s3)cc2)n1 [Example 435]

same assay, conditions: Procedure H compounds, rated A/B/C

Ki [µM]	SMILES
> 10	CC(O)CC1SC(Nc2ccc(CCNc3nc4ccccc4s3)cc2)=NC1=O (stereo not drawn) [Example 440]
> 10	CCCC1SC(Nc2ccc(CCNc3nc4ccccc4s3)cc2)=NC1=O (stereo not drawn) [Example 446]
> 10	O=C1N=C(Nc2ccc(CCNc3nc4ccccc4s3)cc2)SC1c1ccccc1O (stereo not drawn) [Example 445]

same assay, conditions: Table 1, rated A/B/C

Ki [µM]	SMILES
< 1	c1ccc(C2CCCC(Nc3ccc(CCNc4nc5ccccc5s4)cc3)=N2)cc1 (stereo not drawn) [Example 6]
1 to 10	c1ccc([C@H]2CSC(Nc3ccc(CCNc4nc5ccccc5s4)cc3)=N2)cc1 [Example 8]
